How the values were obtained:
[1] = system: H3K9 acetylation in HEK293 cells; assay: Western blot of histone acetylation in HEK293 nuclear extracts: H3K9; assay type: cell-based, human
Experimental: The effect of diacetyl on histone acetylation was further investigated using direct analysis of histone 3K9 acetylation in HEK cells. In vivo activity of diacetyl was determined by gel electrophoresis chromatography of HEK cell lysate exposed to 0 μM, 1 μM and 10 μM of diacetyl (odor 1) in whole HEK cell lysates. […] Proliferating cell nuclear antigen (PCNA; 29 kDa) is a nuclear protein included as a loading control for nuclear protein extracts.
In order to test whether diacetyl can increase acetylation of histones in vivo, human HEK293 cells were used, which offer a tractable system to prepare nuclear extracts. The cells were exposed to different doses of diacetyl for 2 or 6 hours, and monitored histone acetylation levels by Western blot analysis from nuclear extract. […] The acetylation levels of H3K14 and H4K5 were not affected (FIG. 5A).
Human embryonic kidney 293 (HEK293) cells were grown in 100 mm cell culture dishes with Dulbecco's modified Eagle's medium (DMEM) (10-013, Corning, Manassas, Va.), supplemented with 10% fetal bovine serum (FBS) (26140-079, Gibco, Carlsbad, Calif.) at 37° C. with 5% CO2. Cells that were ˜80% confluent were treated with freshly-prepared medium supplemented with diacetyl at concentrations indicated. In order to prevent diffusion of diacetyl odor from the treatment dishes to the outside environment, the cell culture dishes were put into a custom-made container (155.6×155.6×85.7 mm) with a charcoal filter top. The cells for non-treatment controls were handled in the same manner without adding diacetyl to the medium.
Nuclear extracts of HEK293 cells were prepared according to a protocol described previously (Andrews and Faller, 1991), with minor modifications. In brief, HEK293 cells were washed twice with cold phosphate-buffered saline (PBS) and lysed with hypotonic buffer (10 mM HEPES-KOH [pH 7.9], 1.5 mM MgCl2, 10 mM KCl, protease inhibitor cocktail [Roche], 1 mM DTT, 1 mM TSA). Following a brief centrifugation, the pellet was resuspended in hypertonic buffer (20 mM HEPES-KOH [pH 7.9], 25% glycerol, 420 mM NaCl 1.5 mM MgCl2, 0.2 mM EDTA, protease inhibitor cocktail (04693159001, Roche, Indianapolis, Ind.), 1 mM DTT, 1 mM TSA). The supernatant was recovered as nuclear extract.
Proteins in the nuclear extracts (60 μg protein) were separated by SDS-PAGE gels (456-1043, Bio-Rad, Hercules, Calif.), transferred onto PVDF membranes (162-0174, Bio-Rad), and incubated with anti-histone antibodies: acetylated H3K9 (1/2000: ab4441, abeam, Cambridge, Mass.), acetylated H3K14 (1/5000: 06-911, EMD Millipore, Billerica, Mass.), acetylated H4K5 (1/2000: 07-327, EMD Millipore). Bound antibody was detected by horseradish peroxidase-conjugated anti-rabbit secondary antibody (1/20000: 1705046, Bio-Rad) and developed using Clarity™ Western ECL Substrate (1705060, Bio-Rad). Signals were detected and captured by ImageQuant™ LAS 4000 mini (GE healthcare, Pittsburgh, Pa.), and band intensities were quantified with ImageJ software. H3K9 acetylation intensity in individual lanes was reported relative to the normalized Mock treatment (Mock H3K9ace/Mock PCNA), and calculated using this formula: Relative H3K9ace intensity for each timepoint=(Diacetyl H3K9ace/diacetyl PCNA)/(Mock H3K9ace/Mock PCNA).

[2] = system: pGMR-HTTQ120 flies; assay: Huntington's model Drosophila (pGMR-HTTQ120), rhabdomere count by pseudopupil analysis; assay type: in vivo
Text: To investigate the effect of diacetyl on neurodegeneration, Huntington model Drosophila flies (GMR-HTTQ120; expressing human huntington HTTQ120 protein from a GMR promoter) were exposed to odor 1 (diacetyl) at 1% concentration from filter paper for five days as a volatile scent. Following exposure, the omatidia in the eyes of the flies were visualized. […] The number of rhabdomeres present in the omatidia were counted (wildtype flies have 7 rhabdomeres in each omatidia).
When the transgenic flies expressing two copies of the human Huntington with poly-Q repeats (HTTQ120) under control of the eye-specific GMR promoter were raised at 18° C., the number of rhabdomeres in each ommatidium was similar to that of control flies (7) immediately post-eclosion (day 1, FIGS. 8A-8C). […] The mean number of rhabdomeres was reduced from 7 to ˜1 by day 10.
Flies were exposed to diacetyl in a cylindrical container (112 mm diameter×151 mm height). Each container was tightly closed but had 2 holes, one of which connected to an air suction port, and the other to a vial containing either of 5 mL paraffin oil or 5 mL 1% diacetyl in paraffin oil. A gentle suction was applied to pull the headspace from the odor or paraffin oil vials into the cylindrical structure (FIG. 11). pGMR-HTTQ120 flies were maintained at 18° C. Adult flies aged 1 d were transferred to fly vials containing fresh medium, and put into the odor-filled container at room temperature. Paraffin oil and 1% diacetyl solution were prepared and replaced every day. At the end of the fifth day of exposure, half of the flies were collected and subjected to pseudopupil analysis. The remaining flies were transferred to fresh medium and exposed to the odors for an additional 5 days. All treatments and experiments were performed at room temperature.
Pseudopupil Analysis was performed according to a protocol described previously (Song et al., 2013). Flies were decapitated and mounted on a microscope slide by dipping in a drop of nail polish. The arrangement of rhabdomeres in the ommatidia of the compound eyes were analyzed with Axio Imager M2 (Carl Zeiss, Oberkochen, Germany) using a 63× objective, and photographed with Axiocam 506 mono (Carl Zeiss). Six hundred ommatidia from 30 eyes of 15 flies were scored for each condition.

[3] = system: Gr63a; assay: Whole mount RNA in situ of adult Drosophila antenna Gr63a; assay type: in vivo; details: 5 days; odor 1 1% on filter paper, sodium butyrate 10 mM fed; vs untreated or mock
Experimental: For five days, Drosophila were exposed to 1% diacetyl (odor 1) on filter paper; fed known HDAC inhibitor sodium butyrate (Na-but; 10 mM); or fed known HDAC inhibitor valproic acid (10 mM).

[4] = target: T1, human HDAC3 (Homo sapiens, UniProt O15379); assay: Fluorometric HDAC activity assay, purified human HDAC3; assay type: biochemical; details: purified human HDAC3, n=4-5
T1 construct: purchased BPS Bioscience 50073
Experimental: In order to directly test whether diacetyl acts as an inhibitor of HDACs, in vitro acetylation assays was performed with purified human HDACs. In this example, β-hydroxybutyrate (a naturally-occurring HDAC inhibitor secreted by the liver, targeting zinc-dependent HDACs) was used for comparison. HDAC activity of class I HDACs (HDAC1, 2, 3 and 8) was measured with the fluorometric HDAC Activity Assay kit: HDAC1 (10011563, Cayman Chemical, Ann Arbor, Mich.), HDAC2, HDAC 3 and HDAC 8 (50062, 50073 and 50068, BPS Bioscience, San Diego, Calif.), according to the manufacturer's instructions.

T1 sequence (O15379 whole entry): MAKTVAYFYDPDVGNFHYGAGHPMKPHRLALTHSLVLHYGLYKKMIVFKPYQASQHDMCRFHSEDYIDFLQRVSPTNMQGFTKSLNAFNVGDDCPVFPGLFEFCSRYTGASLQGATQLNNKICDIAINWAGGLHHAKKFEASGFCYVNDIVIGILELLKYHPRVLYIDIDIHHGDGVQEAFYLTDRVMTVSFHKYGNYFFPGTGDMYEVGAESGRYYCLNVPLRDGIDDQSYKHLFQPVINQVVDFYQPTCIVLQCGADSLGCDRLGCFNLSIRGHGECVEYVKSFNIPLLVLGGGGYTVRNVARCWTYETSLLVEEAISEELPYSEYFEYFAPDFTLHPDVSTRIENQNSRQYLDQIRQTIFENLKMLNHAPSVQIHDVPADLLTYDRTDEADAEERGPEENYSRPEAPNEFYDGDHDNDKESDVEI
T1 sequence (Q9Y618 395-489 partner limits assumed): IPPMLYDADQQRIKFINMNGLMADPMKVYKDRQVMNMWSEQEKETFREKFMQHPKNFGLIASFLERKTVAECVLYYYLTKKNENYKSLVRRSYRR

- IC50 [4]: 7.72 mM
Structure (SMILES): CC(=O)C(C)=O [diacetyl, 2,3-Butanedione]
- H3K9 acetylation level ([1]; 100 μM, 120 hrs): significantly higher levels
- H3K9 acetylation level ([1]; 100 μM, prolonged exposure 3-5 days, onset): increased only after 96 hrs
- H3K9 acetylation level ([1]; 1 mM, 2 or 6 hours): did not alter
- H3K9 acetylation level ([1]; 10 mM, 2 hours, vs mock): significantly increased
- H3K9 acetylation level ([1]; 10 mM, 6 hours): further increased
- level of acetyl H3K9 (H3K9Ace) ([1]; HEK cells, 0 μM, 1 μM and 10 μM, FIG. 1D): increased with increasing concentrations
- rhabdomeres left in the majority of ommatidia ([2]; 1% headspace, after 10 days, solvent controls ~1-2): 2-3 rhabdomeres
- rhabdomeres retained in the majority of ommatidia ([2]; 1% headspace, day 5): 6-7 rhabdomeres
- rhabdomeres in omatidia vs not exposed flies ([2]; GMR-HTTQ120 flies, 1% from filter paper, five days, FIG. 2A): greater rhabdomeres
- inhibition of rhabdomere loss ([2]; volatile headspace of 1% diacetyl in paraffin oil, after eclosion, 25° C.): 50%
- Gr63a expression in antenna (RNA in situ) [3]: over-expression

Source: US10537535B2, “Histone deacetylase inhibitors” (The Regents of the University of California, priority 2015, dated 2020)
